The source of these data is BindingDB's records for doi:10.1021/jm031106i (Linkoping University, 2004).

Experiment in all cases: Enzyme Inhibition Measurements
One experiment deals with Plasmepsin II (Plasmodium falciparum (isolate HB3), UniProt P46925). Particulars: pH 4.5; 22 °C. As for the experimental part:
(§1) Enzyme activities were assayed by monitoring the hydrolysis of substrate in the presence or absence of inhibitor compounds. The hydrolysis was recorded as the increase in fluorescence intensity over a 10 min time period. IC50 values were obtained by assuming competitive inhibition and fitting the dose response data to the equation (Vi/V0) =1/ (1 + [I]/IC50)). The Ki was calculated by using Ki = IC50/ (1 + [S]/Km), and a Km value determined according to Michaelis-Menten.

The target in another experiment is Cathepsin D (Homo sapiens, UniProt P07339). As for the experimental part:
as §1

The target of a further experiment is Plasmepsin I (Plasmodium falciparum, UniProt P39898). The protocol: as §1
Sequence of Plasmepsin I (P39898 whole entry): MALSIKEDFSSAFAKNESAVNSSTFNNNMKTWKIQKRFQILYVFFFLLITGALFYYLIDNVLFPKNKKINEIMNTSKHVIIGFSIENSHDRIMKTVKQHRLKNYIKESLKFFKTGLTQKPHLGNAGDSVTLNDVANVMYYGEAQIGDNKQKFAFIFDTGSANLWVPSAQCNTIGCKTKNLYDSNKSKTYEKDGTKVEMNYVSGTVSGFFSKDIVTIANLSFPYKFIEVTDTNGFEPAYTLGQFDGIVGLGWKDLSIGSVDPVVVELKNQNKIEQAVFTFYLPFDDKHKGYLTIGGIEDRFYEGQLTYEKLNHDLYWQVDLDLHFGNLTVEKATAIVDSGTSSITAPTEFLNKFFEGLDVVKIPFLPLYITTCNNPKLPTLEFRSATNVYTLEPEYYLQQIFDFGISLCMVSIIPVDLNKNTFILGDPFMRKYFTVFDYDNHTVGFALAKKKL

As a reminder, the Ki is a measure of affinity in units of concentration, obtained from inhibition or displacement. Low readings indicate higher affinity, high ones lower affinity.

Sequence of Cathepsin D (P07339 65-162 limits assumed): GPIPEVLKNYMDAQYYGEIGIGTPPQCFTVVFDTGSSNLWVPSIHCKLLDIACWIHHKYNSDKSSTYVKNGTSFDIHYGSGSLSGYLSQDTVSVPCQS
Sequence of Cathepsin D (P07339 169-412 limits assumed): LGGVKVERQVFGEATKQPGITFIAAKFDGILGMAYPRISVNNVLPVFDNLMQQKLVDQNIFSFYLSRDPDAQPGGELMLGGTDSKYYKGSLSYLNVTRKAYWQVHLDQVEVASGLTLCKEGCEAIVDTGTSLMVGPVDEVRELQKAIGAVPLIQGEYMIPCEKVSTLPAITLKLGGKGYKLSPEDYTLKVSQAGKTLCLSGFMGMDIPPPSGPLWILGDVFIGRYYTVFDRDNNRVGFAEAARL
Sequence of Plasmepsin II (P46925 whole entry): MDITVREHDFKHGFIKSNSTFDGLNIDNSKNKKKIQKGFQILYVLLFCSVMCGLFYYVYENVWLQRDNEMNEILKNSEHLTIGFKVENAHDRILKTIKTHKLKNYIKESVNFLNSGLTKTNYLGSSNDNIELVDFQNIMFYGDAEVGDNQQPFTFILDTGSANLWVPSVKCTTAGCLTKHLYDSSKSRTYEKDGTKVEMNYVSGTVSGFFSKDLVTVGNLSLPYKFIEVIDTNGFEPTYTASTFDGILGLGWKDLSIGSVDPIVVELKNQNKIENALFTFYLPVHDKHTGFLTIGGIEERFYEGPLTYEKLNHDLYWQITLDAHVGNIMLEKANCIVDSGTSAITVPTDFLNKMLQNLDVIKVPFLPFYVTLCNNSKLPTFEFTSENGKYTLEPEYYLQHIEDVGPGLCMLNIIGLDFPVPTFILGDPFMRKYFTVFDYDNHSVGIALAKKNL

Turning to `CC(C)[C@H](NC(=O)c1ccccn1)C(=O)N[C@@H](COCc1ccc(Br)cc1)[C@@H](O)CC(=O)NCC1CCCCC1` [(3S,4S)-5-[(4-bromophenyl)methoxy]-N-(cyclohexylmethyl)-3-hydroxy-4-[(2S)-3-methyl-2-(pyridin-2-ylformamido)butanamido]pentanamide], the values for the Ki on Plasmepsin II, on Cathepsin D and on Plasmepsin I were 41 nM, 586 nM and 3.9 nM, respectively.
